From patent publication US12528776B2, “Composition and method for treating dermatological disorders using retinamides” (UNIVERSITY OF MARYLAND, Baltimore, priority 2019, dated 2026)
Like-named read-outs stand apart in the source and are kept apart here.

Legend:
retinoic acid metabolism = settings: racemate versus enantiomers; cited from earlier work
[1] = system: reconstructed human epidermis (RHE); test: Reconstructed human epidermis (RHE) histology, H and E; assay type: cell-based; settings: 0.02% topical, 3 days at 37° C.
Protocol: RHE tissues were treated with indicated concentration and incubated for 3 days at 37° C. Following treatment tissues were fixed, sectioned and stained with H and E. Representative images from three independent experiments are shown in FIG. 5A to 5E. RHE tissues were untreated (FIG. 5A) or treated with vehicle (ethanol) (FIG. SB), ATRA 0.02% solution (FIG. 5C), 13-CRA 0.02% (FIG. 5D); and VNLG-152 0.02% (FIG. 5E). […] In the figures, “SC” refers to “stratum corneum”, “SG” to “stratum granulosum”, “SS” to “stratum spinosum”, and “SB” to “stratum basale”.

NHAK cells = test: Anti-proliferative effect of ATRA or 13-CRA alone or combined with low-dose VNLG-152; assay type: cell-based, human; settings: for GI50: Homo sapiens, alone, 0.1 to 10,000 nM, continuous incubation, read-out: GI50, ATRA or 13-CRA alone (Example 2); for fold enhancement of anti-proliferative activity (GI50) by VNLG-152: in combination with 40 nM VNLG-152, NHAK
[2] = system: keratin 10 (K10), keratin 19 (K19) and filaggrin expression in RHE cultures; test: RHE immunostaining for K10, K19 and filaggrin; settings: 0.02% topical, 3 days, immunolabelling
[3] = system: immortalized human sebocytes SZ95; settings: after 9 days; cited from earlier work
[4] = system: adult normal human keratinocytes (NHAKs); test: Growth inhibition (MTT) of adult normal human keratinocytes; assay type: cell-based; settings: for GI50: Homo sapiens, Keratinocyte; for fold more potent inhibition of growth than 13-CRA (isotretinoin), NHAKs: ratio of GI50 values versus 13-CRA
RARα,β,γ receptors = settings: significantly less potent than ATRA; cited from earlier work
[5] = system: SEB-1 human primary sebocytes; test: Growth inhibition (MTT) of SEB-1 sebocytes; assay type: cell-based; settings: for GI50: Homo sapiens, 168 h, MTT assay, 7 days treatment; for fold more potent inhibition of growth than 13-CRA (isotretinoin), SEB-1: ratio of GI50 values versus 13-CRA
Protocol: Human adult keratinocytes (pooled) (ZenBio Inc., Research Triangle Park, NC) were cultured in human adult keratinocyte growth medium (KM-2). The SEB-1 human primary sebocytes (ZenBio Inc., Research Triangle Park, NC) were cultured and maintained in sebocyte growth medium. Cells were plated 1 day prior to treatment. Retinamides (VNLG-152 and VNHM-1-73) and other clinically relevant retinoids (13-CRA, 9-CRA, and ATRA) were treated at indicated concentration and time periods and incubated at 37° C. in 5% CO2.
Assays for normal human adult keratinocytes (NHAKs) and human SEB-1 sebocytes growth inhibition were performed as described previously^20. Adult human keratinocytes or sebocytes were treated with VNLG-152,VNHM-1-73 and other retinoids for 7 days. MTT assay was performed at the end of the experiment. Results represent the mean±standard deviation of three independent experiments.

NHAK = test: TUNEL (in situ cell death detection) apoptosis assay; assay type: cell-based, human; settings: 72 hours
Protocol: (§1) For acridine orange/ethidium bromide (AO/EB) dual staining assay, keratinocytes were treated with indicated concentrations of the compounds for 24.48 and 72 h. At the end of incubation period, 100 μl of 1:1 ratio of acridine orange (0.1%) and ethidium bromide (0.2%) in PBS were added to the cells and incubated at 37° C. and 5% CO2 for 30 min. Cells were then immediately analyzed using Nikon TE2000 fluorescence microscope. Assessment of the apoptotic potential by in situ Cell Death Detection assay was done as per protocol of the manufacturer (Roche Diagnostics).
The apoptosis inducing potential of VNLG-152 was evaluated by TUNEL assay in NHAK. The individual cell lines as indicated were seeded in 8 well chamber slides, and treated with indicated concentrations and times of 13-CRA, ATRA and VNLG-/152. After 72 hours, the plates were analyzed for TUNEL positive staining. Statistical analysis was performed with ANOVA two factor with replication (*P<0.05, **P<0.01, ***P<0.001).

[6] = system: castration-resistant prostate cancer xenograft; settings: in vivo; cited from earlier work
[7] = system: mTORC1/4E-BP1/p70SK6 signaling; settings: cited from earlier work
keratinocytes = test: Acridine orange/ethidium bromide (AO/EB) dual staining apoptosis assay; assay type: cell-based, human; settings: VNLG-152 0.2 μM, 48 and 72 h; versus 13-CRA and ATRA 5 and 10 μM
Protocol: as §1
In FIGS. 3A and 3B, the plates were analyzed for early apoptotic and viable cells using acridine orange/ethidium bromide staining. […] In FIG. 3C, the bars are means of three replicate determinations plus standard deviations. Statistical analysis was performed with ANOVA two factor with replication (*P<0.05, **P<0.01, ***P<0.001).

[8] = system: triple negative breast cancer (TNBC) tumor; settings: in vivo; cited from earlier work
[9] = read-out: GI50 values in inhibiting NHAKs and sebocytes (range over both cell types)
[10] = 168 h, MTT assay, 7 days treatment, read-out: GI50, growth and proliferation of adult keratinocytes (NHAKs)

COC(=O)/C=C(C)/C=C/C=C(C)/C=C/C1=C(C)C(n2ccnc2)CCC1(C)C (racemic) [(±)-VN-12-1]
fold more potent than either pure (4S)-(+)- or (4R)-(−)- enantiomer (retinoic acid metabolism): up to 28 fold

CC1=C(/C=C/C(C)=C/C=C/C(C)=C/C(=O)O)C(C)(C)CCC1 [ATRA, all-trans-retinoic acid]
RHE morphology after topical treatment [1]: loss of keratohyalin granules in the upper granular layer | GI50 (NHAK cells): 63.1 µM | fold enhancement of anti-proliferative activity (GI50) by VNLG-152 (NHAK cells): 200 fold | expression of K10 and filaggrin in sb and sg layers of RHE [2]: reduced the expression of these proteins | reduction of proliferation of SZ95 sebocytes [3]: approximately 50%

CC1=C(/C=C/C(C)=C\C=C\C(C)=C\C(=O)O)C(C)(C)CCC1 [Compound 9-CRA, 9-cis-retinoic acid]
reduction of proliferation of SZ95 sebocytes [3]: approximately 50%

CC1=C(/C=C/C(C)=C/C=C/C(C)=C\C(=O)O)C(C)(C)CCC1 [Compound 13-CRA, 13-cis-retinoic acid]
RHE morphology after topical treatment [1]: loss of keratohyalin granules in the upper granular layer | GI50 (NHAK cells): 75.9 µM | fold enhancement of anti-proliferative activity (GI50) by VNLG-152 (NHAK cells): 123 fold | GI50 [4, 9]: 26 to 96.5 µM | reduction of proliferation of SZ95 sebocytes [3]: approximately 50%

CC1=C(/C=C/C(C)=C/C=C/C(C)=C/C(=O)O)C(C)(C)CCC1n1ccnc1 (centres unmarked) [VN/14-1]
RAR binding and activation (RARα,β,γ receptors): binds and activates the RARα,β,γ receptors

CC1=C(/C=C/C(C)=C/C=C/C(C)=C\C(=O)NCc2ccc(O)cc2)C(C)(C)CCC1n1ccnc1 (centres unmarked) [VNHM-1-73, (2Z,4E,6E,8E)-9-(3-(1H-imidazol-1-yl)-2,6,6-trimethylcyclohex-1-en-1-yl)-N-(4-hydroxybenzyl)-3,7-dimethylnona-2,4,6,8-tetraenamide]
GI50 [4, 10]: 1.28 µM | fold more potent inhibition of growth than 13-CRA (isotretinoin), NHAKs [4]: 59.3 fold | GI50 [5]: 0.467 µM | fold more potent inhibition of growth than 13-CRA (isotretinoin), SEB-1 [5]: 85 fold

CC1=C(/C=C/C(C)=C/C=C/C(C)=C/C(=O)Nc2ccc(F)cc2)C(C)(C)CCC1n1ccnc1 (centres unmarked) [VNLG-152]
RHE morphology after topical treatment [1]: loss of keratohyalin granules in the upper granular layer | anti-proliferative effect at low dose (NHAK cells; 40 nM VNLG-152 alone, NHAK): < 10% | induction of apoptosis versus control (TUNEL) (NHAK; 0.2 μM): ~50% | induction of apoptosis (TUNEL) (NHAK; 1 μM): ~84% | effect on castration-resistant prostate cancer xenograft growth [6]: suppress EMT and castration-resistant prostate cancer xenograft growth | GI50 [4, 10]: 0.239 µM | GI50 [4, 9]: 0.066 to 0.239 µM | fold more potent inhibition of growth than 13-CRA (isotretinoin), NHAKs [4]: 317.4 fold | inhibition of mTORC1 signaling [7]: potently inhibits mTORC1/4E-BP1/p70SK6 signaling | expression of K10 and filaggrin in sb and sg layers of RHE [2]: reduced the expression of these proteins | GI50 [5]: 0.066 µM | fold more potent inhibition of growth than 13-CRA (isotretinoin), SEB-1 [5]: 603 fold | times more potent than 13-CRA in reducing the growth of SEB-1 sebocytes ([5]; versus 13-CRA): about 35 times | pro-apoptotic effect, AO/EB dual staining (keratinocytes): strong pro-apoptotic effects | effect on TNBC tumor growth and metastasis [8]: potently inhibits triple negative breast cancer (TNBC) tumor growth and metastasis
